We go through 25 compounds from patent publication US10604509B2, “Nrf2 regulators” (GlaxoSmithKline Intellectual Property Development Limited, priority 2015, dated 2020).

Each structure is given as a SMILES string. Counter-ions that a name gives are not always drawn. Like-named read-outs stand apart in the source and are kept apart here.

The test system of this assay is NQO1 specific enzyme activity in BEAS-2B cells. As to the kind of experiment: BEAS-2B NQO1 MTT assay. It is filed as cell-based. The note with it: BEAS-2B cells, 48 hours with compound, MTT readout, read-out: EC50 of NQO1 specific activity induction. The method in brief:
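NQO1 specific activity, an NRF2 activation marker, read kinetically as absorbance change at 570 nm for 30 min after MTT cocktail addition to crude lysates of BEAS-2B cells exposed 48 h to compound. Three-parameter fit of Delta OD/min against log concentration gives EC50; lysate portion used for Cell Titer Glo.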
On the technique in general: Tetrazolium dyes change colour on reduction, which living cells bring about.

For `Cc1ccc(C(c2ccc3c(nnn3C)c2C)C(C)(C)C(=O)O)cc1Cn1ccnc1CN1CCO[C@H](C)C1` (stereo partly drawn) [Example 144, 3-(1,4-Dimethyl-1H-benzo[d][1,2,3]triazol-5-yl)-2,2-dlmethyl-3-(4-methyl-3-((2-(((R)-2-methylmorpholino)methyl)-1H-imidazol-1-yl)methyl)phenyl) propanoic acid, trifluoroacetic acid salt], the EC50 (as a rule, the concentration giving half of the maximal effect) (Homo sapiens, BEAS-2B, 48 h) was in the range of 100 to 1000 nM. On the same count and under the same terms, to `Cc1ccc(C(CC(=O)O)c2ccc3c(nnn3C)c2C)cc1CN1Cc2ccccc2OC2(CCC2)C1` (stereo not shown) [Example 244, 3-(3-((3H-Spiro[benzo[f][1,4]oxazepine-2,1′-cyclobutan]-4(5H)-yl)methyl)-4-methylphenyl)-3-(1,4-dimethyl-1H-benzo[d][1,2,3]triazol-5-yl)propanoic Acid] belongs 10 to 100 nM. For `Cc1ccc([C@@H](CC(=O)O)c2ccc3c(nnn3C)c2C)cc1CN1Cc2cc(F)ccc2OC(C)(C)C1` [Example 57, (R)-3-(1,4-Dimethyl-1H-benzo[d][1,2,3]triazol-5-yl)-3-(3-((7-fluoro-2,2-dimethyl-2,3-dihydrobenzo[f][1,4]oxazepin-4(5H)-yl)methyl)-4-methylphenyl)propanoic acid, 0.7formic acid salt], the EC50 lay in the range of 10 to 100 nM. Turning to `CCCn1cc(CCC(CC(=O)O)c2ccc(C)c(CN3CCCC(n4cccn4)C3)c2)nn1` (stereo not shown) [Example 163, 3-(3-((3-(1H-pyrazol-1-yl)piperidin-1-yl)methyl)-4-methylphenyl)-5-(1-propyl-1H-1,2,3-triazol-4-yl)pentanoic Acid, Formic Acid Salt], the EC50 (Homo sapiens, BEAS-2B, 48 h) was in the range of 1000 to 10000 nM. The same measure, in the same setting: to `Cc1ccc([C@H](CC(=O)O)c2ccc3c(nnn3C)c2C)cc1CN1Cc2cccc(F)c2OC(C)(C)C1` [Example 178, (S)-3-(1,4-Dimethyl-1H-benzo[d][1,2,3]triazol-5-yl)-3-(3-((9-fluoro-2,2-dimethyl-2,3-dihydrobenzo[f][1,4]oxazepin-4(5H)-yl)methyl)-4-methylphenyl)propanoic acid] belongs 10 to 100 nM; to `CC[C@@H]1CN(Cc2cc(C(CC(=O)O)c3ccc(F)cc3F)ccc2C)Cc2ccccc2O1` (stereo partly drawn) [Example 117, 3-(2,4-Difluorophenyl)-3-(3-(((R)-2-ethyl-2,3-dihydrobenzo[f][1,4]oxazepin-4(5H)-yl)methyl)-4-methylphenyl)propanoic Acid, Formic Acid Salt], 1000 to 10000 nM; to `CC[C@@H]1CN(Cc2cc(C(CC(=O)O)c3ccc4c(nnn4C)c3C)ccc2C)Cc2cc(F)ccc2O1` (stereo partly drawn) [Example 78, 3-(1,4-Dimethyl-1H-benzo[d][1,2,3]triazol-5-yl)-3-(3-(((R)-2-ethyl-7-fluoro-2,3-dihydrobenzo[f][1,4]oxazepin-4(5H)-yl)methyl)-4-methylphenyl)propanoic acid, formic acid salt], 1000 to 10000 nM. Still for that read-out and setting: the value for `Cc1ccc(C(CC(=O)O)c2ccc3c(nnn3C)c2C)cc1CN1CCCn2cncc2C1` (stereo not shown) [Example 92, 3-(3-((6,7-Dihydro-5H-imidazo[1,5-a][1,4]diazepin-8(9H)-yl)methyl)-4-methylphenyl)-3-(1,4-dimethyl-1H-benzo[d][1,2,3]triazol-5-yl)propanoic acid, Sodium salt] was 1000 to 10000 nM; that for `Cc1ccc(C(c2ccc3c(nnn3C)c2C)C2(C(=O)O)CC2)cc1CN1Cc2cnccc2OC(C)(C)C1` (stereo not shown) [Example 211, 1-((1,4-Dimethyl-1H-benzo[d][1,2,3]triazol-5-yl)(3-((2,2-dimethyl-2,3-dihydropyrido[3,4-f][1,4]oxazepin-4(5H)-yl)methyl)-4-methylphenyl)methyl)cyclopropanecarboxylic acid, Trifluoroacetic Acid Salt] was 10 to 100 nM; that for `Cc1ccc(C(c2ccc3c(nnn3C)c2C)C(C)(C)C(=O)O)cc1Cn1ccnc1CN1CCCC1` (stereo not shown) [Example 124, 3-(1,4-Dimethyl-1H-benzo[d][1,2,3]triazol-5-yl)-2,2-dimethyl-3-(4-methyl-3-((2-(pyrrolidin-1-ylmethyl)-1H-imidazol-1-yl)methyl)phenyl)propanoate, Sodium salt] was 10 to 100 nM. `COc1ccc2c(c1)CN(Cc1cc([C@@H](CC(=O)O)c3ccc4c(nnn4C)c3C)ccc1C)CC(C)(C)O2` [Example 166, (R)-3-(1,4-Dimethyl-1H-benzo[d][1,2,3]triazol-5-yl)-3-(3-((7-methoxy-2,2-dimethyl-2,3-dihydrobenzo[f][1,4]oxazepin-4(5H)-yl)methyl)-4-methylphenyl)propanoic acid]: the EC50 (Homo sapiens, BEAS-2B, 48 h) lay in the range of 10 to 100 nM. In the case of `Cc1ccc(C(CC(=O)O)c2ccc3c(nnn3C)c2C)cc1CN(C)Cc1ccc(Br)cc1` (stereo not shown) [Example 16, Ammonium 3-(3-(((4-bromobenzyl)(methyl)amino)methyl)-4-methylphenyl)-3-(1,4-dimethyl-1H-benzo[d][1,2,3]triazol-5-yl)propanoate], the EC50 (Homo sapiens, BEAS-2B, 48 h) was in the range of 1000 to 10000 nM. With `CC[C@@H]1CN(Cc2cc(C(CC(=O)O)c3ccc4c(nnn4C)c3C)ccc2C)Cc2ncccc2O1` (stereo partly drawn) [Example 79, 3-(1,4-Dimethyl-1H-benzo[d][1,2,3]triazol-5-yl)-3-(3-(((R)-2-ethyl-2,3-dihydropyrido[2,3-f][1,4]oxazepin-4(5H)-yl)methyl)-4-methylphenyl)propanoic acid], the EC50 (Homo sapiens, BEAS-2B, 48 h) lay in the range of 1000 to 10000 nM. For the compound `CC[C@@H]1CN(Cc2cc([C@@H](c3ccc4c(nnn4C)c3C)C(C)(C)C(=O)O)ccc2C)Cc2c(ccnc2F)O1` [Example 222, (S)-3-(1,4-Dimethyl-1H-benzo[d][1,2,3]triazol-5-yl)-3-(3-(((R)-2-ethyl-6-fluoro-2,3-dihydropyrido[3,4-f][1,4]oxazepin-4(5H)-yl)methyl)-4-methylphenyl)-2,2-dimethylpropanoic Acid], the EC50 (Homo sapiens, BEAS-2B, 48 h) was below 1 nM.

Turning to `Cc1ccc(C(CC(=O)O)c2ccc(F)cc2C)cc1Cn1ccnc1CC1CCCCC1` (stereo not shown) [Example 135, 3-(3-((2-(Cyclohexylmethyl)-1H-imidazol-1-yl)methyl)-4-methylphenyl)-3-(4-fluoro-2-methylphenyl)propanoic Acid], the EC50 (Homo sapiens, BEAS-2B, 48 h) fell in the range of 10 to 100 nM. On the same count and under the same terms, to `CC[C@@H]1CN(Cc2cc([C@H](CC(=O)O)c3ccc4c(nnn4CC)c3F)ccc2C)Cc2cnccc2O1` [Example 53, (S)-3-(3-(((R)-2-Ethyl-2,3-dihydropyrido[3,4-f][1,4]oxazepin-4(5H)-yl)methyl)-4-methylphenyl)-3-(1-ethyl-4-fluoro-1H-benzo[d][1,2,3]triazol-5-yl)propanoic acid] belongs 100 to 1000 nM; to `Cc1ccc(C(CC(=O)O)c2ccc3c(nnn3C)c2C)cc1CN1CCCC(n2cccn2)C1` (stereo not shown) [Example 9, Ammonium 3-(3-((3-(1H-pyrazol-1-yl)piperidin-1-yl)methyl)-4-methylphenyl)-3-(1,4-dimethyl-1H-benzo[d][1,2,3]triazol-5-yl)propanoate], 1000 to 10000 nM; to `CC[C@@H]1CN(Cc2cc(C(CC(=O)O)c3ccc4c(nnn4C)c3C)ccc2C)Cc2cccc(C)c2O1` (stereo partly drawn) [Example 76, Ammonium 3-(1,4-Dimethyl-1H-benzo[d][1,2,3]triazol-5-yl)-3-(3-(((R)-2-ethyl-9-methyl-2,3-dihydrobenzo[f][1,4]oxazepin-4(5H)-yl)methyl)-4-methylphenyl)propanate], 100 to 1000 nM. Turning to `Cc1ccc(C(CC(=O)O)c2ccc3c(nnn3C)c2C)cc1CN1Cc2ccccc2OC(C)(C)C1` (stereo not shown) [Example 89, 3-(1,4-Diemthyl-1H-benzo[d][1,2,3]triazol-5-yl)-3-(3-((2,2-dimethyl-2,3-dihydrobenzo[f][1,4]oxazepin-4(5H)-yl)methyl)-4-methylphenyl)propanoic acid], the EC50 (Homo sapiens, BEAS-2B, 48 h) fell in the range of 10 to 100 nM. Consider `Cc1ccc(C(CC(=O)O)c2ccc3c(nnn3C)c2C)cc1CN1Cc2cc(C#N)ccc2OC(C)(C)C1` (single isomer, unassigned) [Example 171], for which the 50% effective concentration (EC50) (Homo sapiens, BEAS-2B, 48 h) fell in the range of 10 to 100 nM. Take `CC[C@@H]1CN(Cc2cc([C@H](c3ccc4c(nnn4C)c3C)C(C)(C)C(=O)O)ccc2C)Cc2cnccc2O1` [Example 204, (R)-3-(1,4-Dimethyl-1H-benzo[d][1,2,3]triazol-5-yl)-3-(3-(((R)-2-ethyl-2,3-dihydropyrido[3,4-f][1,4]oxazepin-4(5H)-yl)methyl)-4-methylphenyl)-2,2-dimethylpropanoic Acid, 0.5 Ethanol]: the EC50 (Homo sapiens, BEAS-2B, 48 h) is 100 to 1000 nM. The same measure, in the same setting: to `Cc1ccc(C(CC(=O)O)c2ccc3c(nnn3C)c2C)cc1CN1CCCC(S(=O)(=O)c2ccccc2)C1` (stereo not shown) [Example 185, 3-(1,4-Dimethyl-1H-benzo[d][1,2,3]triazol-5-yl)-3-(4-methyl-3-((3-(phenylsulfonyl)piperidin-1-yl)methyl)phenyl)propanoic Acid] belongs 10 to 100 nM; to `CC[C@@H]1CN(Cc2cc([C@@H](c3ccc4c(nnn4C)c3C)[C@@H](C)C(=O)O)ccc2C)Cc2ccccc2O1` [Example 38, (2R,3S)-3-(1,4-dimethyl-1H-benzo[d][1,2,3]triazol-5-yl)-3-(3-(((R)-2-ethyl-2,3-dihydrobenzo[f][1,4]oxazepin-4(5H)-yl)methyl)-4-methylphenyl)-2-methylpropanoic Acid, Formic Acid Salt], 10 to 100 nM; to `CC[C@@H]1CN(Cc2cc(C(CC(=O)O)c3ccc4c(nnn4C)c3C)ccc2C)Cc2cc(Cl)ccc2O1` (stereo partly drawn) [Example 77, Ammonium 3-(3-(((R)-7-Chloro-2-ethyl-2,3-dihydrobenzo[f][1,4]oxazepin-4(5H)-yl)methyl)-4-methylphenyl)-3-(1,4-dimethyl-1H-benzo[d][1,2,3]triazol-5-yl)propanate], 1000 to 10000 nM. Consider `CC[C@@H]1CN(Cc2cc(C(c3ccc4c(nnn4C)c3C)C(C)(C)C(=O)O)cnc2C)Cc2cnccc2O1` (stereo partly drawn) [Example 213, 3-(1,4-Dimethyl-1H-benzo[d][1,2,3]triazol-5-yl)-3-(5-(((R)-2-ethyl-2,3-dihydropyrido[3,4-f][1,4]oxazepin-4(5H)-yl)methyl)-6-methylpyridin-3-yl)-2,2-dimethylpropanoic acid, Trifluoroacetic Acid Salt], for which the EC50 (Homo sapiens, BEAS-2B, 48 h) lay within 100 to 1000 nM.
